Test results reported in publication PMC6156755, “Using Human Plasma as an Assay Medium in Caco-2 Studies Improves Mass Balance for Lipophilic Compounds” (Pharmaceutical Research, 2018).
Like-named read-outs stand apart in the source and are kept apart here. Marks after values point to notes of the source that are not given here.

Columns and labels:
[1] = Human plasma protein binding (ultracentrifugation or rapid equilibrium dialysis); type: in vitro ADME; conditions: for fraction unbound / fraction unbound at 6 h: pH 7.4, read-out: fu (fraction unbound in plasma); for fraction unbound: neat human plasma, 37°C, concentration comparable to Caco-2 assay
Protocol: Binding was assessed using one of two methods: ultracentrifugation ([31]) using neat human plasma or rapid equilibrium dialysis (RED) using either neat or diluted plasma. […] To allow analysis with a single calibration curve, the total plasma and protein-free supernatant samples were ‘matrix-matched’ by taking aliquots of protein-free supernatant samples and adding to fresh tubes containing an equal volume of blank plasma, or taking aliquots of the total plasma samples and adding to fresh tubes containing an equal volume of Dulbecco’s phosphate-buffered saline (DPBS). In this way, the final composition of both the protein-free supernatant samples and the total plasma samples were ‘matched’ prior to the analysis against a common calibration curve prepared in a 1:1 mixture of human plasma and DPBS. All samples were then stored frozen at −80°C until analysis.
The holding plate was then placed on a plate shaker (set at 800 rpm; ThermoMixer C, Eppendorf) and maintained at 37°C under a 2% CO2 atmosphere. The dialysis was conducted for 6 h, assuming steady state was achieved by the end of this period ([32]). Samples were then removed from both the donor and dialysate chambers of each RED insert. […] Samples were matrix matched as described above (but using PBS buffer instead of DPBS) and stored at −80°C until analysis.
For the more lipophilic compounds with potential for very high binding, the RED method was used with diluted plasma to increase the chance of detecting concentrations in the dialysate samples. Diluted human plasma (10% v/v in pH 7.4 phosphate buffered saline) was spiked with each compound (at 10% of the concentration used for the Caco-2 experiment with neat plasma) and binding conducted as described above. The binding in neat plasma was then calculated by correcting for the dilution as described below.
For binding measurements in neat plasma by ultracentrifugation, the fraction unbound (fu) was calculated from the ratio of the average unbound concentration in protein free supernate (Cunbound) to the average total concentration in non-centrifuged plasma (Ctotal). The standard deviation (SD) for the fu value was calculated using the propagation of errors approach as described previously ([33]). For binding measurements using the RED method in neat plasma, fu was calculated from the ratio of the dialysate to total plasma concentration for each dialysis unit and the mean and SD calculated for replicate units (n = 3).
For RED binding assessments using 10% plasma, the fu − diluted for individual dialysis units was calculated in the same way as described above.

Caco-2 cell monolayer [2] = test: Caco-2 permeability assay with pH 7.4 buffer or human plasma in both chambers; conditions: for Permeability Classification: criteria of Table V
[3] = as above; conditions: human; for efflux ratio: Caco-2, pH 7.4, Efflux ratio (B-A/A-B)
[4] = human; values from the literature; cited from earlier work
Caco-2 cell monolayer [5] = test system: Caco-2 cell monolayer
in vitro = conditions: human; for Papp A→B: Caco-2, pH 7.4, Papp A-B; for Papp B→A: Caco-2, pH 7.4, Papp B-A
[6] = buffer (HBSS/HEPES pH 7.4) in both chambers
[7] = Caco-2, pH 7.4, Papp A-B, buffer pH 7.4 in both chambers
[8] = Caco-2, pH 7.4, Papp A-B, human plasma in both chambers, corrected for fu in donor
[9] = RED with diluted human plasma (10% v/v), corrected for dilution, < values from LLOQ
[10] = Caco-2, pH 7.4, Papp B-A, human plasma in both chambers, corrected for fu in donor
[11] = Caco-2, pH 7.4, Papp B-A, buffer pH 7.4 in both chambers

CC(=O)Nc1ccc(O)cc1 [Paracetamol, paracetamol]
fraction unbound [1]: 0.86
Mass balance A-B (Caco-2 cell monolayer [2]; [6]): 92 ± 3.8%
Mass balance A-B (Caco-2 cell monolayer [2]; human plasma in both chambers): 92 ± 0.58%
Papp A→B [3, 7]: 32 ± 2.9 ×10⁻⁶ cm/s
Papp A→B [3, 8]: 37 ± 4 ×10⁻⁶ cm/s
Human FA (fraction absorbed) [4]: 90%

Clc1ccc2c(N3CCN(CCCN4CCN(c5ccnc6cc(Cl)ccc56)CC4)CC3)ccnc2c1 [Piperaquine, piperaquine]
fraction unbound at 6 h [1, 9]: < 0.001
Mass balance A-B (Caco-2 cell monolayer [2]; [6]): <10%
Mass balance A-B (Caco-2 cell monolayer [2]; buffer (HBSS/HEPES pH 7.4) in both chambers, listed as piperaquine): < 10%
Permeability Classification (Caco-2 cell monolayer [2]; buffer pH 7.4): Low (Papp < 0.839)
Mass balance B-A (Caco-2 cell monolayer [2]; buffer pH 7.4 in both chambers): <10%
Mass balance B-A (Caco-2 cell monolayer [2]; buffer pH 7.4 in both chambers, listed as piperaquine): < 10%
Mass balance A-B (Caco-2 cell monolayer [2]; human plasma in both chambers): 100 ± 8.1%
Mass balance B-A (Caco-2 cell monolayer [2]; human plasma in both chambers): 100 ± 5.8%
Permeability Classification (Caco-2 cell monolayer [2]; human plasma): High (Papp ≥ 8.15)
Papp ([3]; Caco-2, pH 7.4): > 300 ×10⁻⁶ cm/s
Papp A→B [3, 8]: > 300 ×10⁻⁶ cm/s
Papp B→A [3, 10]: > 300 ×10⁻⁶ cm/s

CC(C)(C)NCC(O)COc1ccc(NC(=O)NC2CCCCC2)cc1 (stereo not shown) [Talinolol, talinolol]
fraction unbound [1]: 0.48

CC(C)NCC(O)COc1cccc2ccccc12 (stereo not shown) [Propranolol, propranolol]
Increase in Papp using plasma compared to buffer (Caco-2 cell monolayer [5]; human, Caco-2, pH 7.4): 2-3 fold
fraction unbound [1]: 0.25
Papp A→B (in vitro): 120 ± 35 ×10⁻⁶ cm/s
Papp B→A (in vitro): 110 ± 19 ×10⁻⁶ cm/s
Mass balance B-A (Caco-2 cell monolayer [2]; buffer pH 7.4 in both chambers): 97 ± 0.58%
Mass balance B-A (Caco-2 cell monolayer [2]; human plasma in both chambers): 99 ± 2.3%
Papp A→B [3, 7]: 58 ± 4.5 ×10⁻⁶ cm/s
Papp B→A [3, 11]: 52 ± 4 ×10⁻⁶ cm/s

COCCc1ccc(OCC(O)CNC(C)C)cc1 (stereo not shown) [Metoprolol, metoprolol]
fraction unbound [1]: 0.7
Papp A→B (in vitro): 57 ± 5.8 ×10⁻⁶ cm/s
Papp A→B [3, 7]: 50 ± 6.1 ×10⁻⁶ cm/s

CC(C)(C)NCc1cc(Nc2ccnc3cc(Cl)ccc23)c2c(c1O)CCCC2 [Naphthoquine, naphthoquine]
Efflux ratio (B-A/A-B) (Caco-2 cell monolayer [5]; Caco-2): 0.78 ± 0.12
Mass balance B-A (Caco-2 cell monolayer [5]; Caco-2): 94 ± 14%
Papp A-B (Caco-2 cell monolayer [5]; Caco-2): 230 ± 32^b 10^−6 cm/s
Papp B-A (Caco-2 cell monolayer [5]; Caco-2): 180 ± 10^b 10^−6 cm/s
Efflux ratio (B-A/A-B) (Caco-2 cell monolayer [5]; Caco-2, pH 7.4): 2.0 ± 1.3
Mass balance A-B (Caco-2 cell monolayer [5]; Caco-2, pH 7.4): 31 ± 7.2%
Mass balance B-A (Caco-2 cell monolayer [5]; Caco-2, pH 7.4): 70 ± 10%
Papp A-B (Caco-2 cell monolayer [5]; Caco-2, pH 7.4): 2.2 ± 1.3 10^−6 cm/s
Papp B-A (Caco-2 cell monolayer [5]; Caco-2, pH 7.4): 4.5 ± 1.4 10^−6 cm/s
Permeability Classification (Caco-2 cell monolayer [5]; Caco-2, pH 7.4): Intermediate
fu (fraction unbound in plasma) [1, 9]: 0.019 ^e

CC(C)NCC(O)COc1ccc(CC(N)=O)cc1 (stereo not shown) [Atenolol, atenolol]
Human FA (fraction absorbed) [4]: 55%

CCN(CC)Cc1cc(Nc2ccnc3cc(Cl)ccc23)ccc1O [Amodiaquine, amodiaquine]
fraction unbound [1]: 0.12
Papp A→B (in vitro): 90 ± 8.3 ×10⁻⁶ cm/s
Papp B→A (in vitro): 63 ± 9.6 ×10⁻⁶ cm/s
Mass balance A-B (Caco-2 cell monolayer [2]; [6]): 33 ± 1.7%
Permeability Classification (Caco-2 cell monolayer [2]; buffer pH 7.4): Intermediate
Mass balance B-A (Caco-2 cell monolayer [2]; buffer pH 7.4 in both chambers): 93 ± 4.0%
Mass balance A-B (Caco-2 cell monolayer [2]; human plasma in both chambers): 81 ± 6.1^b %
Mass balance B-A (Caco-2 cell monolayer [2]; human plasma in both chambers): 88 ± 4.6%
Permeability Classification (Caco-2 cell monolayer [2]; human plasma): High (Papp ≥ 8.15)
efflux ratio ([3]; buffer pH 7.4 in both chambers): 1.6 ± 0.43
efflux ratio ([3]; human plasma in both chambers): 0.7 ± 0.12
Papp A→B [3, 7]: 4.5 ± 0.12 ×10⁻⁶ cm/s
Papp B→A [3, 11]: 7.1 ± 1.9 ×10⁻⁶ cm/s

O=C1C(O)=C([C@H]2CC[C@H](c3ccc(Cl)cc3)CC2)C(=O)c2ccccc21 [Atovaquone, atovaquone]
fraction unbound at 6 h [1, 9]: < 0.0002
Mass balance A-B (Caco-2 cell monolayer [2]; [6]): <10%
Mass balance A-B (Caco-2 cell monolayer [2]; buffer (HBSS/HEPES pH 7.4) in both chambers, listed as atovaquone): < 10%
Permeability Classification (Caco-2 cell monolayer [2]; buffer pH 7.4): Low (Papp < 0.839)
Mass balance B-A (Caco-2 cell monolayer [2]; buffer pH 7.4 in both chambers): <10%
Mass balance B-A (Caco-2 cell monolayer [2]; buffer pH 7.4 in both chambers, listed as atovaquone): < 10%
Mass balance A-B (Caco-2 cell monolayer [2]; human plasma in both chambers): 99 ± 1.2%
Mass balance B-A (Caco-2 cell monolayer [2]; human plasma in both chambers): 97 ± 2.3%
Permeability Classification (Caco-2 cell monolayer [2]; human plasma): High (Papp ≥ 8.15)
Papp ([3]; Caco-2, pH 7.4): > 300 ×10⁻⁶ cm/s
Papp A→B [3, 8]: > 300 ×10⁻⁶ cm/s
Papp B→A [3, 10]: > 300 ×10⁻⁶ cm/s

COC(=O)c1ccccc1-c1c2ccc(=N)cc-2oc2cc(N)ccc12 [Rhodamine 123, rhodamine 123]
fraction unbound [1]: 0.35
Mass balance A-B (Caco-2 cell monolayer [2]; [6]): 99 ± 11%
Mass balance B-A (Caco-2 cell monolayer [2]; buffer pH 7.4 in both chambers): 99 ± 1.2%
Mass balance A-B (Caco-2 cell monolayer [2]; human plasma in both chambers): 98 ± 1.5%
Mass balance B-A (Caco-2 cell monolayer [2]; human plasma in both chambers): 92 ± 4.7%
efflux ratio ([3]; buffer pH 7.4 in both chambers): 6.1 ± 1.4
efflux ratio ([3]; human plasma in both chambers): 12 ± 1.4
Papp A→B [3, 7]: 1.6 ± 0.32 ×10⁻⁶ cm/s
Papp A→B [3, 8]: 1.2 ± 0.058 ×10⁻⁶ cm/s
Papp B→A [3, 11]: 9.7 ± 1.1 ×10⁻⁶ cm/s
Papp B→A [3, 10]: 14 ± 1.5 ×10⁻⁶ cm/s

CCN(CC)CCCC(C)Nc1ccnc2cc(Cl)ccc12 (stereo not shown) [Chloroquine, chloroquine]
Permeability Classification (Caco-2 cell monolayer [2]; buffer pH 7.4): High (Papp ≥ 4.90)
Permeability Classification (Caco-2 cell monolayer [2]; buffer pH 7.4, listed as chloroquine): high
Permeability Classification (Caco-2 cell monolayer [2]; human plasma): High (Papp ≥ 8.15)
Permeability Classification (Caco-2 cell monolayer [2]; human plasma, listed as chloroquine): high

COc1ccc2cc([C@H](C)C(=O)O)ccc2c1 [Naproxen, naproxen]
Human FA (fraction absorbed) [4]: 100%

CCCCN(CCCC)CCC(O)c1cc2c(Cl)cc(Cl)cc2c2cc(C(F)(F)F)ccc12 (stereo not shown) [Halofantrine, halofantrine]
fraction unbound at 6 h [1, 9]: < 0.0001
Mass balance A-B (Caco-2 cell monolayer [2]; [6]): <10%
Mass balance A-B (Caco-2 cell monolayer [2]; buffer (HBSS/HEPES pH 7.4) in both chambers, listed as halofantrine): < 10%
Permeability Classification (Caco-2 cell monolayer [2]; buffer pH 7.4): Low (Papp < 0.839)
Mass balance B-A (Caco-2 cell monolayer [2]; buffer pH 7.4 in both chambers): <10%
Mass balance B-A (Caco-2 cell monolayer [2]; buffer pH 7.4 in both chambers, listed as halofantrine): < 10%
Mass balance A-B (Caco-2 cell monolayer [2]; human plasma in both chambers): 83 ± 7.6%
Mass balance B-A (Caco-2 cell monolayer [2]; human plasma in both chambers): 87 ± 4.4%
Permeability Classification (Caco-2 cell monolayer [2]; human plasma): High (Papp ≥ 8.15)
Papp ([3]; Caco-2, pH 7.4): > 300 ×10⁻⁶ cm/s
Papp A→B ([3]; Caco-2, pH 7.4): > 300 ×10⁻⁶ cm/s
Papp B→A ([3]; Caco-2, pH 7.4): > 300 ×10⁻⁶ cm/s

OC(c1cc(C(F)(F)F)nc2c(C(F)(F)F)cccc12)C1CCCCN1 (stereo not shown) [Mefloquine, mefloquine]
fraction unbound at 6 h [1, 9]: 0.015
Papp A→B (in vitro): 180 ± 20 ×10⁻⁶ cm/s
Papp B→A (in vitro): 150 ± 10 ×10⁻⁶ cm/s
Mass balance A-B (Caco-2 cell monolayer [2]; [6]): 15 ± 2.6%
Permeability Classification (Caco-2 cell monolayer [2]; buffer pH 7.4): Intermediate
Mass balance B-A (Caco-2 cell monolayer [2]; buffer pH 7.4 in both chambers): 86 ± 6.7%
Mass balance A-B (Caco-2 cell monolayer [2]; human plasma in both chambers): 70 ± 2.6^b %
Mass balance B-A (Caco-2 cell monolayer [2]; human plasma in both chambers): 86 ± 3.1%
Mass balance A-B (Caco-2 cell monolayer [2]; human plasma in both chambers, listed as mefloquine): 60–70%
Permeability Classification (Caco-2 cell monolayer [2]; human plasma): High (Papp ≥ 8.15)
efflux ratio ([3]; buffer pH 7.4 in both chambers): 2.2 ± 0.7
efflux ratio ([3]; human plasma in both chambers): 0.83 ± 0.11
Papp A→B [3, 7]: 2.1 ± 0.65 ×10⁻⁶ cm/s
Papp B→A [3, 11]: 4.7 ± 0.35 ×10⁻⁶ cm/s

CC(C)(C)NC(=O)[C@@H]1C[C@@H]2CCCC[C@@H]2CN1C[C@@H](O)[C@H](Cc1ccccc1)NC(=O)[C@H](CC(N)=O)NC(=O)c1ccc2ccccc2n1 [Saquinavir]
fraction unbound [1]: 0.04
Mass balance A-B (Caco-2 cell monolayer [2]; [6]): 76 ± 0.58%
Mass balance B-A (Caco-2 cell monolayer [2]; buffer pH 7.4 in both chambers): 60 ± 5.6%
Mass balance A-B (Caco-2 cell monolayer [2]; human plasma in both chambers): 100 ± 7.2^b %
Mass balance B-A (Caco-2 cell monolayer [2]; human plasma in both chambers): 110 ± 7.5^b %
Papp A→B [3, 7]: 2.4 ± 1.4 ×10⁻⁶ cm/s
Papp A→B [3, 8]: 8.4 ± 2.5 ×10⁻⁶ cm/s
Papp B→A [3, 11]: 34 ± 2.1 ×10⁻⁶ cm/s
Papp B→A [3, 10]: 140 ± 42 ×10⁻⁶ cm/s
